The values that follow come from PMC6720511, “Synthesis and biological evaluation of novel N-(piperazin-1-yl)alkyl-1H-dibenzo[a,c]carbazole derivatives of dehydroabietic acid as potential MEK inhibitors” (Journal of Enzyme Inhibition and Medicinal Chemistry, 2019).

Data set [1] deals with Hep3B. Description: MTT cytotoxic assay. The class given is cell-based, human. The conditions noted are these: Homo sapiens, Hep3B, 48 h, mean value ± SD. The procedure:
(§1) Three human hepatocarcinoma cell lines (SMMC-7721, HepG2 and Hep3B) and normal hepatocyte cell line (QSG-7701) were maintained in Dulbecco Modified Eagle Medium (DMEM) containing 4.0 mM L-Glutamine and 4500 mg/l Glucose supplemented with 10% (v/v) foetalbovine serum (FBS) and 100 unites/mL penicillin/streptomycin at 37 °C in humidified atmosphere of 5% CO2 and 95% air.
(§2) The in vitro cytotoxic activities of the carbazole derivatives of DHA were evaluated against three human hepatocarcinoma cell lines (SMMC-7721, HepG2 and Hep3B) and a normal human hepatocyte cell line (QSG-7701) via the MTT colorimetric method. Briefly, SMMC-7721, HepG2, Hep3B and QSG-7701 cells were harvested at log phase of growth and seeded in 96-well plates (100 µL/well at a density of 2 × 10^5 cells/mL). After 24 h incubation at 37 °C and 5% CO2 to allow cell attachment, cultures were exposed to various concentrations of the isolated compounds for 48 h. Finally, MTT solution (2.5 mg/mL in PBS) was added (40 µL/well). Plates were further incubated for 4 h at 37 °C, and the formazan crystals formed were dissolved by adding 150 µL/well of DMSO. Absorption at 570 nm was measured with an ELISA plate reader. […] Doxorubicin was co-assayed as positive control.
In general terms: Tetrazolium assays rely on reduction of a dye to a coloured formazan, in cell work by metabolically active cells.

The test system of data set [2] is HepG2. Kind of data set: MTT cytotoxic assay. The data set is classed as cell-based, human. The conditions noted are these: Homo sapiens, HepG2, 48 h, mean value ± SD. The procedure:
as §1, §2

Data set [3] relates to SMMC-7721. Kind of data set: MTT cytotoxic assay. The data set is classed as cell-based, human. The conditions noted are these: Homo sapiens, SMMC-7721, 48 h, mean value ± SD. How it is done: as §1, §2
The test system of data set [4] is normal hepatocyte cell line (QSG-7701). Description: MTT cytotoxic assay on normal hepatocytes. The data set is classed as cell-based, human. The conditions noted are these: Homo sapiens, QSG7701, 48 h, mean value ± SD. How it is done:
as §1, §2

For data set [5], the system named is three human hepatocarcinoma cell lines (SMMC-7721, HepG2 and Hep3B). Kind of data set: MTT cytotoxic assay, statements over the three cancer cell lines. The class given is cell-based. The conditions noted are these: for cytotoxic activity against three cancer cell lines (in words): SMMC-7721, HepG2 and Hep3B; for IC50: Homo sapiens, at least one of SMMC-7721, HepG2, Hep3B, read-out: IC50 against at least one hepatocarcinoma cell line. The procedure: as §1, §2

Data set [6] concerns the target T1, MEK1 (Homo sapiens, UniProt Q02750).
T1 construct: purchased Carna Biosciences, Japan
Kind of data set: In vitro MEK1 inhibition assay (ADP-Glo kinase assay). The conditions noted are these: recombinant GST-MEK1, GST-ERK2, 10 µM ATP, mean value ± SD; read-out: MEK1 inhibitory activity IC50 value. The data set is classed as biochemical. The procedure:
An in vitro kinase assay of MEK1 was performed using ADP-Glo kinase assay (Promega, Madison, WI, USA) according to the manufacturer’s protocol. […] Reactions were stopped by adding 5 µL of ADP-Glo reagent to each well. After incubating at 22 °C for 40 min, 10 µL of the kinase detection reagent was added and the plates were incubated for another 30 min at 22 °C in the dark. The reaction mixture was analysed by EnSpire (PerkinElmer, Waltham, MA, USA). U0126 was used as the positive control for MEK1 inhibition.
(ADP-Glo first removes unused ATP, then detects ADP through luciferase.)

For data set [7], the system named is HepG2 cells. Kind of data set: Cell death inhibition assay. The class given is cell-based, human. The conditions noted are these: 24 h. How it is done: Figure 6. Compound 10g induced oncosis and apoptosis of HepG2 cells. (a) PD150606 and Z-VAD-FMK partially reversed compound 10g-induced cell death. HepG2 cells were incubated with PD150606, Z-VAD-FMK or Necrostatin-1 at indicated concentration for 24 h alone or in combination with compound 10g at indicated concentration for 24 h. (b) Compound 10g induced the degradation of α-tubulin and β-actin, and activated oncosis marker calpain-1 autolysis from the 80 kDa event to 76 kDa event in western blot analysis. *, p < 0.01; **, p < 0.01; #, p < 0.01; &, p < 0.001. (c) Compound 10g induced the upregulation of apoptotic protein Bax, caspase-3, caspase-9 and plasmic cytochrome c levels, and the downregulation of antiapoptotic protein Bcl-2 level. *, p < 0.001; **, p < 0.01; #, p < 0.01; and p < 0.01.

T1 sequence (Q02750 whole entry): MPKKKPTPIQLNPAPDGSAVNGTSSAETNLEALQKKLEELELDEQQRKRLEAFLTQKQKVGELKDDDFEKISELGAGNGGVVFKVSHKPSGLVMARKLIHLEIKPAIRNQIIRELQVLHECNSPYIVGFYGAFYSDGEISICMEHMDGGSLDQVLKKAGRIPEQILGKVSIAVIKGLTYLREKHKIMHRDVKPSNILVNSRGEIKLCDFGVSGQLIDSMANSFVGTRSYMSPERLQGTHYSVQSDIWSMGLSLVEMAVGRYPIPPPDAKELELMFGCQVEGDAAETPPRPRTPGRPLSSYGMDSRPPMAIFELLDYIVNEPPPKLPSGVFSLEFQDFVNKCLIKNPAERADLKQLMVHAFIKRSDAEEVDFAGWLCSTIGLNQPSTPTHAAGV

The IC50 is the midpoint of a concentration-inhibition curve. On to `CCN1CCN(CCn2c3c(c4ccccc42)C2C(C)(C(=O)OC)CCCC2(C)c2ccc(C(C)C)cc2-3)CC1` (stereo not shown) [Compound 6c, 2,3,4,4a,9,13c-Hexahydro-7-isopropyl-1,4a-dimethyl-9–(2-(4-ethylpiperazin-1-yl)ethyl)-1H-dibenzo[a,c]carbazole-1-carboxylic acid methyl ester], for which the IC50 was 11 ± 0.65 µM in data set [1], 17.4 ± 1.73 µM in data set [2], 14 ± 2.1 µM in data set [3] and 41.1 ± 3.69 µM in data set [4]. For the same compound, the “cytotoxic activity against three cancer cell lines (in words)” value in data set [5] is “moderate activity”.
On to `COC(=O)C1(C)CCCC2(C)c3ccc(C(C)C)cc3-c3c(c4ccccc4n3CCN3CCCNCC3)C12` (stereo not shown) [Compound 6d, 2,3,4,4a,9,13c-Hexahydro-7-isopropyl-1,4a-dimethyl-9–(2-(1,4-diazepan-1-yl)ethyl)-1H-dibenzo[a,c]carbazole-1-carboxylic acid methyl ester], for which the IC50 in data set [1] was 6.31 ± 0.33 µM; in data set [2], 5.87 ± 0.42 µM; in data set [3], 7.01 ± 0.74 µM; in data set [4], 22.1 ± 2.75 µM; in data set [5], under 10 µM.
Consider `COC(=O)C1(C)CCCC2(C)c3ccc(C(C)C)cc3-c3c(c4ccccc4n3CCN3CCN(C=O)CC3)C12` (stereo not shown) [Compound 6e, 2,3,4,4a,9,13c-Hexahydro-7-isopropyl-1,4a-dimethyl-9–(2-(4-formylpiperazin-1-yl)ethyl)-1H-dibenzo[a,c]carbazole-1-carboxylic acid methyl ester], for which the IC50 was 11.4 ± 0.53 µM in data set [1], 15.7 ± 1.61 µM in data set [2], 17.3 ± 1.78 µM in data set [3] and over 50 µM in data set [4]. Further, the “cytotoxic activity against three cancer cell lines (in words)” value in data set [5] was “moderate inhibitions”.
As to `COC(=O)C1(C)CCCC2(C)c3ccc(C(C)C)cc3-c3c(c4ccccc4n3CCCN3CCN(C)CC3)C12` (stereo not shown) [Compound 7b, 2,3,4,4a,9,13c-Hexahydro-7-isopropyl-1,4a-dimethyl-9–(3-(4-methylpiperazin-1-yl)propyl)-1H-dibenzo[a,c]carbazole-1-carboxylic acid methyl ester], the IC50 in data set [1] is 5.98 ± 0.39 µM; in data set [2], 29 ± 1.29 µM; in data set [3], 6.8 ± 0.72 µM; in data set [4], over 50 µM; in data set [5] it was under 10 µM.
Turning to `COC(=O)C1(C)CCCC2(C)c3ccc(C(C)C)cc3-c3c(c4cc(C)ccc4n3CCN3CCNCC3)C12` (stereo not shown) [Compound 10a, 2,3,4,4a,9,13c-Hexahydro-7-isopropyl-1,4a,12-trimethyl-9–(2-(piperazin-1-yl)ethyl)-1H-dibenzo[a,c]carbazole-1-carboxylic acid methyl ester], the IC50 in data set [1] is 1.17 ± 0.12 µM; in data set [2], 3.05 ± 0.37 µM; in data set [3], 1.73 ± 0.22 µM; in data set [4], 16.3 ± 1.56 µM; in data set [6], 6.36 ± 0.51 µM.
The corresponding values for `COC(=O)C1(C)CCCC2(C)c3ccc(C(C)C)cc3-c3c(c4cccc(C)c4n3CCN3CCNCC3)C12` (stereo not shown) [Compound 10b, 2,3,4,4a,9,13c-Hexahydro-7-isopropyl-1,4a,10-trimethyl-9–(2-(piperazin-1-yl)ethyl)-1H-dibenzo[a,c]carbazole-1-carboxylic acid methyl ester] are 5.03 ± 0.31 µM, 6.11 ± 0.38 µM, 5.52 ± 0.47 µM, 21.9 ± 1.72 µM and over 20 µM.
Take `CCc1ccc2c(c1)c1c(n2CCN2CCNCC2)-c2cc(C(C)C)ccc2C2(C)CCCC(C)(C(=O)OC)C12` (stereo not shown) [Compound 10c, 2,3,4,4a,9,13c-Hexahydro-12-ethyl-7-isopropyl-1,4a-dimethyl-9–(2-(piperazin-1-yl)ethyl)-1H-dibenzo[a,c]carbazole-1-carboxylic acid methyl ester]: the IC50 in data set [1] was 5.84 ± 0.36 µM; in data set [2], 7.27 ± 0.51 µM; in data set [3] it was 6.56 ± 0.19 µM; in data set [4], 22.2 ± 1.81 µM; in data set [6], over 20 µM.
The corresponding values for `COC(=O)C1(C)CCCC2(C)c3ccc(C(C)C)cc3-c3c(c4cc(C(C)C)ccc4n3CCN3CCNCC3)C12` (stereo not shown) [Compound 10d, 2,3,4,4a,9,13c-Hexahydro-7,12-diisopropyl-1,4a-dimethyl-9–(2-(piperazin-1-yl)ethyl)-1H-dibenzo[a,c]carbazole-1-carboxylic acid methyl ester] are 8.85 ± 0.42 µM, 8.42 ± 0.39 µM, 10.5 ± 0.48 µM, 31 ± 2.39 µM and over 20 µM.
The corresponding values for `COC(=O)C1(C)CCCC2(C)c3ccc(C(C)C)cc3-c3c(c4cc(OC)ccc4n3CCN3CCNCC3)C12` (stereo not shown) [Compound 10e, 2,3,4,4a,9,13c-Hexahydro-7-isopropyl-12-methoxy-1,4a-dimethyl-9–(2-(piperazin-1-yl)ethyl)-1H-dibenzo[a,c]carbazole-1-carboxylic acid methyl ester] are 4.38 ± 0.35 µM, 3.73 ± 0.19 µM, 3.02 ± 0.21 µM, 15.3 ± 1.13 µM and 1.28 ± 0.06 µM.
The corresponding values for `COC(=O)C1(C)CCCC2(C)c3ccc(C(C)C)cc3-c3c(c4cccc(OC)c4n3CCN3CCNCC3)C12` (stereo not shown) [Compound 10f, 2,3,4,4a,9,13c-Hexahydro-7-isopropyl-10-methoxy-1,4a-dimethyl-9–(2-(piperazin-1-yl)ethyl)-1H-dibenzo[a,c]carbazole-1-carboxylic acid methyl ester] are 2.23 ± 0.16 µM, 3.15 ± 0.13 µM, 2.03 ± 0.15 µM, 17.3 ± 0.78 µM and 0.23 ± 0.03 µM.
Regarding `CCOc1cccc2c3c(n(CCN4CCNCC4)c12)-c1cc(C(C)C)ccc1C1(C)CCCC(C)(C(=O)OC)C31` (stereo not shown) [Compound 10h, 2,3,4,4a,9,13c-Hexahydro-10-ethoxy-7-isopropyl-1,4a-dimethyl-9–(2-(piperazin-1-yl)ethyl)-1H-dibenzo[a,c]carbazole-1-carboxylic acid methyl ester], the IC50 in data set [1] is 1.78 ± 0.12 µM; in data set [2] it was 4.87 ± 0.48 µM; in data set [3] it was 2.21 ± 0.17 µM; in data set [4] it was 18.9 ± 1.09 µM; in data set [6], 1.63 ± 0.12 µM.
For `COC(=O)C1(C)CCCC2(C)c3ccc(C(C)C)cc3-c3c(c4cc(F)ccc4n3CCN3CCNCC3)C12` (stereo not shown) [Compound 10i, 2,3,4,4a,9,13c-Hexahydro-12-fluoro-7-isopropyl-1,4a-dimethyl-9–(2-(piperazin-1-yl)ethyl)-1H-dibenzo[a,c]carbazole-1-carboxylic acid methyl ester], the IC50 in data set [1] is 3.32 ± 0.2 µM; in data set [2], 3.91 ± 0.34 µM; in data set [3], 4.32 ± 0.27 µM; in data set [4], 23.7 ± 1.53 µM; in data set [6] it was over 20 µM.
Turning to `COC(=O)C1(C)CCCC2(C)c3ccc(C(C)C)cc3-c3c(c4cc(Cl)ccc4n3CCN3CCNCC3)C12` (stereo not shown) [Compound 10j, 2,3,4,4a,9,13c-Hexahydro-12-chloro-7-isopropyl-1,4a-dimethyl-9–(2-(piperazin-1-yl)ethyl)-1H-dibenzo[a,c]carbazole-1-carboxylic acid methyl ester], the IC50 was 3.75 ± 0.34 µM in data set [1]; 2.88 ± 0.23 µM in data set [2]; 2.49 ± 0.18 µM in data set [3]; 12.2 ± 1.01 µM in data set [4]; 5.62 ± 0.48 µM in data set [6].
Turning to `CN1C(=O)C(Cc2c[nH]c3ccccc23)NC1=S` (stereo not shown) [Necrostatin-1], the “effect of inhibitor on cell death caused by compound 10g (in words)” value in data set [7] (in combination with 10g) is reported as “no apparent effect”.
Take `O=C(O)/C(S)=C/c1ccc(I)cc1` [PD150606]: the “relative cell viability of HepG2 cells treated with 10g plus inhibitor” value in data set [7] (10g 10 µM in combination with PD150606 50 µM) is 44.87%.
